Source: the NIST ThermoML archive (doi:10.1021/je200302h)

Settings: Liquid, Drop weight

O=C=O [carbon dioxide] + O
interfacial tension [mN/m]
Settings	8380 kPa	10440 kPa	13890 kPa	17340 kPa	20790 kPa
298.15 K	25.65	25.15	24.85	24.9	25
313.15 K	22.23	22.16	23.33	23.41	25.07
323.15 K	–	23.05	22.74	24.27	23.5
333.15 K	–	–	23.36	23.58	22.8
